Data: patent publication US20070203114A1, “7,8,9,10-Tetrahydro-Imidazo [2,1-A] Isochinolines” (priority 2004, published 2007)

How the values were obtained:
[1] = test system: pentagastrin-stimulated acid secretion of the perfused rat stomach; test: Secretion-inhibiting action on the perfused rat stomach (pentagastrin-stimulated acid secretion); assay type: in vivo; conditions: anesthetized CD rat, female; dose 3 μmol/kg i.d. (intraduodenal); pentagastrin 1 μg/kg i.v. continuous infusion
From the text: Testing of the Secretion-Inhibiting Action on the Perfused Rat Stomach
In Table A which follows, the influence of the compounds according to the invention on the pentagastrin-stimulated acid secretion of the perfused rat stomach after intraduodenal administration in vivo is shown.
The abdomen anesthetized rats (CD rat, female, 200-250 g; 1.5 g/kg i.m. urethane) was opened after tracheotomy by a median upper abdominal incision and a PVC catheter was fixed transorally in the esophagus and another via the pylorus such that the ends of the tubes just projected into the gastric lumen. The catheter leading from the pylorus led outward into the right abdominal wall through a side opening.
After thorough rinsing (about 50-100 ml), warm (37° C.) physiological NaCl solution was continuously passed through the stomach (0.5 ml/min, pH 6.8-6.9; Braun-Unita I). The pH (pH meter 632, glass electrode EA 147; φ=5 mm, Metrohm) and, by titration with a freshly prepared 0.01N NaOH solution to pH 7 (Dosimat 665 Metrohm), the secreted HCl were determined in the effluent in each case collected at an interval of 15 minutes.
The gastric secretion was stimulated by continuous infusion of 1 μg/kg (=1.65 ml/h) of i.v. pentagastrin (left femoral vein) about 30 min after the end of the operation (i.e. after determination of 2 preliminary fractions). The substances to be tested were administered intraduodenally in a 2.5 ml/kg liquid volume 60 min after the start of the continuous pentagastrin infusion.
The body temperature of the animals was kept at a constant 37.8-38° C. by infrared irradiation and heat pads (automatic, stepless control by means of a rectal temperature sensor).

SMILES: CCOC(=O)c1cn2c(C)c(C)nc2c2c1CCC(c1ccccc1)C2 (stereo not shown) [Example 1, 2,3-Dimethyl-9-phenyl-7,8,9,10-tetrahydro-imidazo[2,1-a]isoquinoline-6-carboxylic acid ethyl ester]
- melting point: 165 to 167 °C

SMILES: Cc1nc2c3c(c(C(=O)O)cn2c1C)CCC(c1ccccc1)C3 (stereo not shown) [Example 2, 2,3-Dimethyl-9-phenyl-7,8,9,10-tetrahydro-imidazo[2,1-a]isoquinoline-6-carboxylic acid]
- melting point: 343 to 345 °C (dec.)

SMILES: Cc1nc2c3c(c(C(=O)N(C)C)cn2c1C)CCC(c1ccccc1)C3 (stereo not shown) [Example 3, 2,3-Dimethyl-9-phenyl-7,8,9,10-tetrahydro-imidazo[2,1-a]isoquinoline-6-carboxylic acid dimethylamide]
- Inhibition of acid secretion [1]: >40%

SMILES: Cc1nc2c3c(c(C(=O)N4CCCC4)cn2c1C)CCC(c1ccccc1)C3 (stereo not shown) [Example 4, (2,3-Dimethyl-9-phenyl-7,8,9,10-tetrahydro-imidazo[2,1-a]isoquinolin-6-yl)-pyrrolidin-1-yl-methanone]
- Inhibition of acid secretion [1]: >40%

SMILES: COCCNC(=O)c1cn2c(C)c(C)nc2c2c1CCC(c1ccccc1)C2 (stereo not shown) [Example 6, 2,3-Dimethyl-9-phenyl-7,8,9,10-tetrahydro-imidazo[2,1-a]isoquinoline-6-carboxylic acid (2-methoxy-ethyl)-amide]
- Inhibition of acid secretion [1]: >40%

SMILES: Cc1nc2c3c(c(C(=O)N4CCOCC4)cn2c1C)CCC(c1ccccc1)C3 (stereo not shown) [Example 7, (2,3-Dimethyl-9-phenyl-7,8,9,10-tetrahydro-imidazo[2,1-a]isoquinolin-6-yl)-morpholin-4-yl-methanone]
- Inhibition of acid secretion [1]: >40%

SMILES: CNC(=O)c1cn2c(C)c(C)nc2c2c1CCC(c1ccccc1)C2 (stereo not shown) [Example 8, 2,3-Dimethyl-9-phenyl-7,8,9,10-tetrahydro-imidazo[2,1-a]isoquinoline-6-carboxylic acid methylamide]
- Inhibition of acid secretion [1]: >40%
- melting point: 266 to 268 °C

SMILES: Cc1nc2c3c(c(CO)cn2c1C)CCC(c1ccccc1)C3 (stereo not shown) [Example 10, (2,3-Dimethyl-9-phenyl-7,8,9,10-tetrahydro-imidazo[2,1-a]isoquinolin-6-yl)-methanol]
- melting point: 290 to 292 °C

SMILES: COCc1cn2c(C)c(C)nc2c2c1CCC(c1ccccc1)C2 (stereo not shown) [Example 11, 6-Methoxymethyl-2,3-dimethyl-9-phenyl-7,8,9,10-tetrahydro-imidazo[2,1]isoquinoline]
- Inhibition of acid secretion [1]: >40%
